What was measured:
[1] = system: intracranial U251MG gliomas; assay: Survival, intracranial glioma, intratumoral Ad and systemic 5-FC; format: in vivo, SCID mice; conditions: no virus/5-FC
Method: (§1) U87MG and D54MG cells (5×10^5) were stereotactically injected into the right frontal cortex of SCID mice. Tumors were established for 5 days before intratumoral injection of AdCMVCD (10^8 or 10^9 pfu/mouse). Mice were then treated IP with 5-FC (500 mg/kg bid) on days 2-9 post infection and monitored for survival. Kaplan-Meier survival curves and median and 20% survival values were calculated by standard methods.
Additional experiments were performed on intracranial tumors derived from all three glioma models. […] Similar results were obtained with SCID mice bearing intracranial U87MG gliomas (AdE1ACD/5-FC 84 days, AdE1ACD/saline 49 days, no virus/5-FC 57 days, p<0.01; Table II and Table 12).

Panc2.03 xenografts = assay: Subcutaneous human pancreatic tumor xenograft, tumor growth; format: in vivo, athymic nude mice; conditions: PBS plus 5-FC
Method: Animals were injected i.t. with 1×10^7 TCID50 of AdbCD-D314A or 1×10^8 TCID50 of AdbCDwt on Days 0, 7, and 14. 5-FC was administered i.p. at 400 mg/kg qd×5/week for 3 weeks starting on Day 1. Data points represent the mean change in tumor surface area relative to Day 0 for each group of animals.
To compare anti-tumor effects of AdbCD-D314A and AdbCDwt mediated molecular chemotherapy on established solid tumors, 7×10^6 Panc2.03 pancreatic cancer cells were injected s.c. into female athymic nude mice. Treatment was started 11 days post-tumor cell injection at the time of established tumor growth (tumors were 6-8 mm in diameter), noted as Day 0. Animals were randomly divided into groups receiving different treatments: 1) AdbCDwt plus 5-FC; 2) AdbCD-D314A plus 5-FC; 3) AdbCD-D314A plus PBS; 4) PBS plus 5-FC. Mice were injected i.t. with 1×10^8 TCID50 per tumor AdbCDwt or with 1×10^7 TCID50 AdbCD-D314A on Days 0, 7, and 14. Three groups of mice (# 1, 2 and 4) received 5-FC i.p. at 400 mg/kg on Days 1 to 5, 8 to 12, and 15 to 19.

MIA PaCa-2 xenografts = assay: as above; format: in vivo, athymic nude mice
Method: Treatment was started at the time of established tumor growth (Day 0 equal to 17 days after tumor cell injection). Animals were injected i.t. with PBS or 5×10^7 TCID50 of AdbCD-D314A on Days 0, 7, and 14, and then irradiated with 2 Gy on Days 1, 8 and 15 using a ^60Co gamma irradiator, and 400 mg/kg of 5-FC was i.p. administered at qd×5/week for 3 weeks starting on Day 1. Data points represent the mean change in tumor surface area relative to Day 0 for each group of animals.
To evaluate in vivo therapeutic efficacy of the combination of AdbCD-D314A/5-FC and radiation treatment, 16×10^6 MIA PaCa-2 tumor cells were resuspended 1:1 (v/v) in Matrigel (Becton Dickinson) and injected s.c. into female athymic nude mice. Treatment was started 17 days post-tumor cell injection at the time of established tumor growth, noted as Day 0. Animals were randomly divided into groups receiving different treatments: 1) AdbCD-D314A plus 5-FC; 2) AdbCD-D314A plus 5-FC in combination with radiation; 3) PBS plus 5-FC in combination with radiation; 4) PBS plus 5-FC. Two groups of mice (# 1 and 2) were injected i.t. with 5×10^7 TCID50 AdbCD-D314A on Days 0, 7, and 14. […] Tumor size was monitored twice a week using digital Vernier calipers. Tumor surface areas were calculated as width×length (mm^2).

[2] = system: Intracranial U87MG Human Gliomas; assay: Survival, intracranial glioma, intratumoral Ad and systemic 5-FC; format: in vivo, SCID mice; conditions: for Survival 20% / Survival Median: Saline (no virus) + 5-FC
Method: as §1
U87MG cells (5×10^5), the stringent glioma model, were stereotactically injected into the right frontal cortex of SCID mice. Tumors were established for 5 days before intratumoral injection of AdE1ACD or AdCMVCD (10^8 or 10^9 pfu/mouse). Mice were then treated IP with 5-FC (500 mg/kg bid) on days 2-9 post infection and monitored for survival. Kaplan-Meier survival curves and median and 20% survival values were calculated by standard methods.

CFPAC-1 = assay: 5-FU cytotoxicity IC50; format: cell-based; conditions: Homo sapiens
Method: (§2) A two factor analysis of variance with interaction was used to assess the effects of AdCMVLuc and AdCMVLuc+Fab-FGF2 MOI on RLU for each of the cell types individually. Due to the nonconstant variability, the logarithm of RLU was analyzed. This transformation stabilized the variability and normalized the errors. A three-factor with interaction analysis of variance was used to assess the effects of MOI, virus type and day on the number of cells per well. Due to the nonconstant variability, the logarithm of cells per well was analyzed. This transformation stabilized the variability and normalized the errors. Global comparisons were done at the 5% significance level and all pairwise comparisons were done at the 1% significance level. A nonlinear model was used to calculate the 5-FU IC50 for each cell type individually. The nonlinear model is given by: number of cells=trough+(peak-trough)/(1+dose/IC50). To assess the correlation of the number of cells per well with 5-FU production, a simple linear regression was done modeling the logarithm of cells per well as a function of percent 5-FU production for each cell and virus type combination individually. Kaplan-Meier estimates on the difference in time to tumor size doubling was used to assess the difference in tumor growth in animals treated with AdCMVCD or AdCMVCD+Fab′-FGF2 plus 5-FC and radiation.
(§3) To determine the relative sensitivity of several hepatobiliary cell lines to 5-FU, the concentration of 5-FU which inhibited cellular growth by 50% (IC50) was determined. Characterization of this information is particularly relevant to the CD/5-FC toxin gene prodrug system, as 5-FU is the toxic metabolic product of cytosine deaminase enzymatic conversion of 5-FC.

BXPC-3 = assay: 5-FU cytotoxicity IC50; format: cell-based; conditions: Homo sapiens
Method: as §2, §3

ASPC-1 = assay: 5-FU cytotoxicity IC50; format: cell-based; conditions: Homo sapiens, ASPC1
Method: as §2, §3

SK-ChA-1 = assay: 5-FU cytotoxicity IC50; format: cell-based; conditions: Homo sapiens
Method: as §2, §3

Nc1nc(=O)[nH]cc1F [5-FC, 5-fluorocytosine]
median survival [1]: 23 days | mean time to tumor doubling (Panc2.03 xenografts): 22 days | mean time to tumor doubling (MIA PaCa-2 xenografts; PBS plus 5-FC): 14 days | mean time to tumor doubling (MIA PaCa-2 xenografts; PBS plus 5-FC in combination with radiation): 30 days | Survival 20% ([2]; Table 6): 61 | Survival Median ([2]; Table 6): 50 | Survival 20% ([2]; Table 8): 34 | Survival Median ([2]; Table 8): 34 | Survival 20% ([2]; Table 11): 60 | Survival Median ([2]; Table 11): 57 | median survival ([2]; U87MG, no virus/5-FC): 57 days

O=c1[nH]cc(F)c(=O)[nH]1 [5-FU, 5-fluorouracil]
IC50 (CFPAC-1): 0.089 µg/mL | IC50 (BXPC-3): 0.134 µg/mL | IC50 (ASPC-1): 0.635 µg/mL | IC50 (SK-ChA-1): 0.115 µg/mL

Reference: patent publication US20070225245A1, “Viral vector driven mutant bacterial cytosine deaminase gene and uses thereof” (priority 1998, published 2007)
